Tested on: luminescent Pseudomonas aeruginosa
Assay: LD50 of luminescent Pseudomonas aeruginosa in mice, effect of anesthesia or adjuvant on virulence
Type: in vivo
Conditions: Ketamine-sedated mice; non-anesthetized mice: approximately 2.5×10^6 CFU
Excerpt: One of the factors typically determined in the calibration process is a suitable dose of pathogen for the selected model system of sepsis. This dose is preferably based on the LD50 of the pathogen in the particular animal model of sepsis being used. The LD50, or “Lethal Dose 50”, is a measure for quantifying the effects of a perturbation (e.g., a test compound, procedure, or bacterial infection) on a biological system. It represents the 50% mortality point—that is, the concentration or level of a particular perturbation at which half of the animals die by the end of the experiment.
The LD50 may change depending on the experimental parameters. The measure is therefore expressed as an LD50 for a given experimental system. By way of example, it was discovered in the course of experiments performed in support of the present invention that the type of anesthesia used to prepare the animals for imaging can have a significant effect on the LD50. Specifically, it was discovered that anesthesia induced by injectable Ketamine may potentiate the virulence of some pathogens.
For example, it was found during experiments performed in support of the present invention that pathogen virulence is boosted by administration of 5% (by volume) hog gastric mucin to the host. […]

## CNC1(c2ccccc2Cl)CCCCC1=O (stereo not shown) [Ketamine]
  LD50 of luminescent Pseudomonas aeruginosa: ~4.6×10^5 CFU
